Assay results from patent US6924285B2, “Bicyclic heterocyclic compounds, pharmaceutical compositions containing these compounds, their use and process for preparing them” (Boehringer Ingelheim Pharma GmbH & Co., priority 2002, dated 2005).

Biological target: T1, human EGF-receptor kinase (Homo sapiens, UniProt P00533)
T1 construct: GST; made in house; host or cells: Sf9 insect cells (baculovirus)
T1 sequence (P00533 688-1210): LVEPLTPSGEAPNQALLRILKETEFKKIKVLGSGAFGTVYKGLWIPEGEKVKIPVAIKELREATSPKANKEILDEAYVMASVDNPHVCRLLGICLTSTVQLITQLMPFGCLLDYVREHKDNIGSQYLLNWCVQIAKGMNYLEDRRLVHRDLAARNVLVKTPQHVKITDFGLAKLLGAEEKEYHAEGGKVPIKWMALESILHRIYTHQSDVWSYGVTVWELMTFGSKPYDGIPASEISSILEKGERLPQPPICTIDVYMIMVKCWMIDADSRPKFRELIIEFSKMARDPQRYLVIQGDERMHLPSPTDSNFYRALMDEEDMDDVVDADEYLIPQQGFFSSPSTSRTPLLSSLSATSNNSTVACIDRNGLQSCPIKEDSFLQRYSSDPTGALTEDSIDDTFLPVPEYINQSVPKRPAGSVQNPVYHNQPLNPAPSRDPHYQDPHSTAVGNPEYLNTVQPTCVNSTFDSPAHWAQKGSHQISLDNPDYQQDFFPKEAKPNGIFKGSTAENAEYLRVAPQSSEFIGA
Assay: Inhibition of human EGF-receptor kinase (enzyme assay, ELISA read-out)
Format: biochemical
Conditions: cytoplasmic tyrosine kinase domain as GST fusion protein, substrate pEY/bio-pEY, 30 minutes at ambient temperature
Procedure: The inhibition of human EGF-receptor kinase was determined using the cytoplasmic tyrosine kinase domain (methionine 664 to alanine 1186 based on the sequence published in Nature 309 (1984), 418). For this the protein was expressed in Sf9 insect cells as GST fusion protein using the Baculovirus expression system.
The enzyme activity was measured in the presence or absence of the test compounds in serial dilutions. The polymer pEY (4:1) obtained from SIGMA was used as the substrate. Biotinylated pEY (bio-pEY) was added as the tracer substrate. 100 μl of reaction solution contained 10 μl of the inhibitor in 50% DMSO, 20 μl of the substrate solution (200 mM HEPES pH 7.4, 50 mM magnesium acetate, 2.5 mg/ml poly(EY), 5 μg/ml bio-pEY) and 20 μl of enzyme preparation. The enzyme reaction was started by the addition of 50 μl of a 100 μM ATP solution in 10 mM of magnesium chloride. The dilution of the enzyme preparation was adjusted so that the incorporation of phosphate in the bio-pEY was linear in terms of time and quantity of enzyme. The enzyme preparation was diluted in 20 mM HEPES pH 7.4, 1 mM EDTA, 130 mM common salt, 0.05% Triton X-100, 1 mM DTT and 10% glycerol.
The enzyme assays were carried out at ambient temperature over a period of 30 minutes and ended by the addition of 50 μl of a stopping solution (250 mM EDTA in 20 mM HEPES pH 7.4). 100 μl were placed on a streptavidine-coated microtitre plate and incubated for 60 minutes at ambient temperature. Then the plate was washed with 200 μl of a wash solution (50 mM Tris, 0.05% Tween 20). After the addition of 100 μl of an HRPO-labelled anti-PY antibody (PY20H Anti-PTyr:HRP made by Transduction Laboratories, 250 ng/ml) the preparation was incubated for 60 minutes. Then the microtitre plate was washed three times with 200 μl of wash solution. The samples were then combined with 100 μl of a TMB-peroxidase solution (A:B=1:1, Kirkegaard Perry Laboratories). After 10 minutes the reaction was stopped. The extinction was measured at OD450 nm with an ELISA reader. All the results were measured three times.
The data were adapted by iterative calculation using an analytical pogramme for sigmoidal curves (Graph Pad Prism Version 3.0) with a variable Hill pitch. […] The active substance concentration which inhibits the activity of EGF receptor kinase by 50% (IC50) was derived from the curves.
With COc1cc2ncnc(Nc3ccc(F)c(Cl)c3)c2cc1OC1CCOCC1 [1(1), 4-[(3-chloro-4-fluoro-phenyl)amino]-6-(tetrahydropyran-4-yloxy)-7-methoxy-quinazoline] the IC50 was 0.12 nM.
With COc1cc2ncnc(Nc3ccc(F)c(Cl)c3)c2cc1O[C@H]1CC[C@@H](NC(=O)OC(C)(C)C)CC1 [1(2), 4-[(3-chloro-4-fluoro-phenyl)amino]-6-[cis-4-(tert.-butyloxycarbonylamino)-cyclohexan-1-yloxy]-7-methoxy-quinazoline] the IC50 was 2 nM.
COc1cc2ncnc(Nc3ccc(F)c(Cl)c3)c2cc1O[C@@H]1CCOC1 [1(3), 4-[(3-chloro-4-fluoro-phenyl)amino]-6-((R)-tetrahydrofuran-3-yloxy)-7-methoxy-quinazoline] gave an IC50 of 1.1 nM.
In the case of COc1cc2ncnc(Nc3ccc(F)c(Cl)c3)c2cc1O[C@H]1CC[C@H](NC(=O)OC(C)(C)C)CC1 [1(4), 4-[(3-chloro-4-fluoro-phenyl)amino]-6-[trans-4-(tert.-butyloxycarbonylamino)-cyclohexan-1-yloxy]-7-methoxy-quinazoline], the IC50 is reported as 0.6 nM.
With COc1cc2ncnc(Nc3ccc(F)c(Cl)c3)c2cc1OC1CCN(C(=O)OC(C)(C)C)CC1 [1(5), 4-[(3-chloro-4-fluoro-phenyl)amino]-6-[1-(tert.-butyloxycarbonyl)-piperidin-4-yloxy]-7-methoxy-quinazoline] the IC50 was 0.6 nM.
For COc1cc2ncnc(Nc3ccc(F)c(Cl)c3)c2cc1OC1CCCOC1 (stereo not drawn) [1(6), 4-[(3-chloro-4-fluoro-phenyl)amino]-6-(tetrahydropyran-3-yloxy)-7-methoxy-quinazoline], the IC50 was 0.69 nM.
For COc1cc2ncnc(Nc3ccc(F)c(Cl)c3)c2cc1O[C@H]1CC[C@H](N)CC1 [2(1), 4-[(3-chloro-4-fluoro-phenyl)amino]-6-(trans-4-amino-cyclohexan-1-yloxy)-7-methoxy-quinazoline], the IC50 was 0.16 nM.
COc1cc2ncnc(Nc3ccc(F)c(Cl)c3)c2cc1O[C@H]1CC[C@H](NS(C)(=O)=O)CC1 [3(1), 4-[(3-chloro-4-fluoro-phenyl)amino]-6-(trans-4-methanesulphonylamino-cyclohexan-1-yloxy)-7-methoxy-quinazoline] showed an IC50 of 0.14 nM.
With COc1cc2ncnc(Nc3ccc(F)c(Cl)c3)c2cc1OC1CCN(S(C)(=O)=O)CC1 [3(2), 4-[(3-chloro-4-fluoro-phenyl)amino]-6-(1-methanesulphonyl-piperidin-4-yloxy)-7-methoxy-quinazoline] the IC50 was 0.22 nM.
With COc1cc2ncnc(Nc3ccc(F)c(Cl)c3)c2cc1OC1CCN(C(=O)N2CCOCC2)CC1 [3(7), 4-[(3-chloro-4-fluoro-phenyl)amino]-6-{1-[(morpholin-4-yl)carbonyl]-piperidin-4-yloxy}-7-methoxy-quinazoline] the IC50 was 0.7 nM.
In the case of COCC(=O)N1CCC(Oc2cc3c(Nc4ccc(F)c(Cl)c4)ncnc3cc2OC)CC1 [3(8), 4-[(3-chloro-4-fluoro-phenyl)amino]-6-{1-[(methoxymethyl)carbonyl]-piperidin-4-yloxy}-7-methoxy-quinazoline], the IC50 is reported as 0.6 nM.
Molecule COc1cc2ncnc(Nc3ccc(F)c(Cl)c3)c2cc1OC1CCN(C#N)CC1 [3(9), 4-[(3-chloro-4-fluoro-phenyl)amino]-6-(1-cyano-piperidin-4-yloxy)-7-methoxy-quinazoline] has an IC50 of 0.2 nM.
Work on COc1cc2ncnc(Nc3ccc(F)c(Cl)c3)c2cc1OC1CCN(S(=O)(=O)N2CCOCC2)CC1 [3(11), 4-[(3-chloro-4-fluoro-phenyl)amino]-6-{1-[(morpholin-4-yl)sulphonyl]-piperidin-4-yloxy}-7-methoxy-quinazoline] yielded an IC50 of 0.1 nM.
Work on COc1cc2ncnc(Nc3ccc(F)c(Cl)c3)c2cc1OC1CCN(CCNC(C)=O)CC1 [3(15), 4-[(3-chloro-4-fluoro-phenyl)amino]-6-[1-(2-acetylamino-ethyl)-piperidin-4-yloxy]-7-methoxy-quinazoline] yielded an IC50 of 1 nM.
Work on COc1cc2ncnc(Nc3ccc(F)c(Cl)c3)c2cc1O[C@H]1CC[C@H](NS(=O)(=O)N(C)C)CC1 [3(16), 4-[(3-chloro-4-fluoro-phenyl)amino]-6-{trans-4-[(dimethylamino)sulphonylamino]-cyclohexan-1-yloxy}-7-methoxy-quinazoline] yielded an IC50 of 1 nM.
With COc1cc2ncnc(Nc3ccc(F)c(Cl)c3)c2cc1O[C@H]1CC[C@H](NC(=O)N2CCOCC2)CC1 [3(17), 4-[(3-chloro-4-fluoro-phenyl)amino]-6-{trans-4-[(morpholin-4-yl)carbonylamino]-cyclohexan-1-yloxy}-7-methoxy-quinazoline] the IC50 was 0.3 nM.
With COc1cc2ncnc(Nc3ccc(F)c(Cl)c3)c2cc1O[C@H]1CC[C@H](NS(=O)(=O)N2CCOCC2)CC1 [3(18), 4-[(3-chloro-4-fluoro-phenyl)amino]-6-{trans-4-[(morpholin-4-yl)sulphonylamino]-cyclohexan-1-yloxy}-7-methoxy-quinazoline] the IC50 was 0.4 nM.
Work on CC(=O)NCCOc1cc2ncnc(Nc3ccc(F)c(Cl)c3)c2cc1OC1CCOCC1 [3(20), 4-[(3-chloro-4-fluoro-phenyl)amino]-6-(tetrahydropyran-4-yloxy)-7-(2-acetylamino-ethoxy)-quinazoline] yielded an IC50 of 1 nM.
CS(=O)(=O)NCCOc1cc2ncnc(Nc3ccc(F)c(Cl)c3)c2cc1OC1CCOCC1 [3(21), 4-[(3-chloro-4-fluoro-phenyl)amino]-6-(tetrahydropyran-4-yloxy)-7-(2-methanesulphonylamino-ethoxy)-quinazoline] showed an IC50 of 0.4 nM.
COc1cc2ncnc(Nc3ccc(F)c(Cl)c3)c2cc1O[C@H]1CC[C@H](NS(=O)(=O)CCCN2CCOCC2)CC1 [4(1), 4-[(3-chloro-4-fluoro-phenyl)amino]-6-(trans-4-{[3-(morpholin-4-yl)-propyl]sulphonylamino}-cyclohexan-1-yloxy)-7-methoxy-quinazoline] gave an IC50 of 0.16 nM.
Work on COCCOc1cc2ncnc(Nc3ccc(F)c(Cl)c3)c2cc1OC1CCOCC1 [7(5), 4-[(3-chloro-4-fluoro-phenyl)amino]-6-(tetrahydropyran-4-yloxy)-7-(2-methoxy-ethoxy)-quinazoline] yielded an IC50 of 1 nM.
With COc1cc2ncnc(Nc3ccc(F)c(Cl)c3)c2cc1OC1CCNCC1 [Example 2(2), 4-[(3-chloro-4-fluoro-phenyl)amino]-6-(piperidin-4-yloxy)-7-methoxy-quinazoline x trifluoroacetic acid] the IC50 was 0.22 nM.
COc1cc2ncnc(Nc3ccc(F)c(Cl)c3)c2cc1O[C@H]1CC[C@@H](N)CC1 [Example 2, 4-[(3-chloro-4-fluoro-phenyl)amino]-6-(cis-4-amino-cyclohexan-1-yloxy)-7-methoxy-quinazoline x Trifluoroacetic Acid] showed an IC50 of 4.5 nM.
Work on COc1cc2ncnc(Nc3ccc(F)c(Cl)c3)c2cc1O[C@H]1CC[C@@H](NS(=O)(=O)CCCN2CCOCC2)CC1 [Example 4, 4-[(3-chloro-4-fluoro-phenyl)amino]-6-(cis-4-{[3-(morpholin-4-yl)-propyl]sulphonylamino}-cyclohexan-1-yloxy)-7-methoxy-quinazoline] yielded an IC50 of 0.41 nM.

System: not given
Assay: not given
Conditions: not given
For COc1cc2ncnc(Nc3ccc(F)c(Cl)c3)c2cc1O[C@H]1CCNC1.Cl.Cl, the melting point was 251 °C.
COc1cc2ncnc(Nc3ccc(F)c(Cl)c3)c2cc1O[C@H]1CCOC1 [Example 1, 4-[(3-chloro-4-fluoro-phenyl)amino]-6-((S)-tetrahydrofuran-3-yloxy)-7-methoxy-quinazoline] showed a melting point of 184 °C.
Work on COc1cc2ncnc(Nc3ccc(F)c(Cl)c3)c2cc1O[C@H]1CC[C@@H](N)CC1 [Example 2, 4-[(3-chloro-4-fluoro-phenyl)amino]-6-(cis-4-amino-cyclohexan-1-yloxy)-7-methoxy-quinazoline x Trifluoroacetic Acid] yielded a melting point of 232 °C.
Molecule Fc1ccc(Nc2ncnc3cc(OCCCN4CCOCC4)c(OC4CCOCC4)cc23)cc1Cl [Example 7, 4-[(3-chloro-4-fluoro-phenyl)amino]-6-(tetrahydropyran-4-yloxy)-7-[3-(morpholin-4-yl)-propyloxy]-quinazoline] has a melting point of 205 °C.
Molecule CN(C)C(=O)CN1CCC(Oc2ccc3ncnc(Nc4ccc(F)c(Cl)c4)c3c2)CC1 [Example 10, 4-[(3-chloro-4-fluoro-phenyl)amino]-6-{1-[(dimethylamino)carbonylmethyl]-piperidin-4-yloxy}-quinazoline] has a melting point of 233 °C.
COc1cc2ncnc(Nc3ccc(F)c(Cl)c3)c2cc1OC1CCN(C(=O)N2CCCOCC2)CC1 [Example 12, 4-[(3-chloro-4-fluoro-phenyl)amino]-6-{1-[([1,4]oxazepan-4-yl)carbonyl)-piperidin-4-yloxy}-7-methoxy-quinazoline] showed a melting point of 171 °C.
